# Test results: PubChem BioAssay (NCI)
#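 Protocol summary: plate cells (96-well), add compound at 5 concentrations, incubate 48 h, interpolate endpoints linearly. At the TGI there is no net growth.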
# How the values were obtained:
# Test in all cases: NCI tumour cell line growth inhibition, 48 h
# [1] = system: KM12 colon
# [2] = system: SN12C renal
# [3] = system: DU-145 prostate
# [4] = system: OVCAR-5 ovarian
# [5] = system: HCC-2998 colon
# [6] = system: BT-549 breast
Compound,TGI [1] [µM],TGI [2] [µM],TGI [3] [µM],TGI [4] [µM],TGI [5] [µM],TGI [6] [µM]
Cc1ccc(/C(Cl)=C/C=C(C#N)C#N)cc1,21,17.4,23.9,7.48,–,–
O=c1cc(N2CCNCC2)nc2ccccn12,> 100,> 100,> 100,> 100,> 100,> 100
NCCCCC(NC(=O)C(N)Cc1ccc(O)cn1)C(=O)O (stereo not given),> 100,> 100,> 100,> 100,> 100,> 100
CCOC(=O)N(NC(=O)NC(C)C)c1ccccc1,> 100,> 100,–,> 100,> 100,> 100
COc1ccc(C[C@@H](CO)NC2=C(C#N)CCC2)cc1,63.5,> 100,> 100,> 100,> 100,> 100
Oc1c2cc(Cl)cc1COCc1cc(Cl)cc(c1O)COCc1cc(Cl)cc(c1O)COC2,> 100,–,> 100,> 100,> 100,> 100
CC(C)(C)OC(=O)CN1C(=O)CC1CC(=O)c1ccccc1 (stereo not given),44.4,51.1,34.2,36.8,63.2,35.5
COc1ccc(C(=O)c2sc(N(C)C)nc2-c2ccccc2)cc1,73,> 100,> 100,> 100,48.5,75.6
Cc1cc2cc3c(cc2c(-c2ccc([N+](=O)[O-])cc2)n1)OCO3,> 100,> 100,> 100,> 100,> 100,73.7
C[C@]12CC[C@H](OC(=O)Cc3ccc(N(CCCl)CCCl)cc3)CC1=CC[C@@H]1[C@@H]2CC[C@]2(C)C(=O)CC[C@@H]12,> 100,> 100,> 100,> 100,> 100,> 100
CC(CCC(=O)O)(c1ccc(O)cc1)c1ccc(O)cc1,> 100,> 100,> 100,> 100,–,> 100
COC(=O)c1cc(C)ccc1C1CN=NC12Cc1ccc(C)cc1C2=O (stereo not given),> 100,> 100,> 100,> 100,> 100,> 100
COc1ccccc1N(CN1C(=O)CCC1C(=O)O)C(C)=O (stereo not given),> 100,> 100,> 100,> 100,> 100,–
Nc1nc(Cl)c(CO)c(NCC2(CO)CC(CCc3ccccc3)C2)n1 (stereo not given),14.2,> 100,> 100,> 100,> 100,71.1
O=P1(O)c2ccccc2CCc2ccccc21,> 100,> 100,> 100,–,> 100,> 100
COc1ccc(/C=C2\CCC(C)C3C2=NN(c2ccccc2)C3c2ccc(OC)c(OC)c2)cc1OC (stereo not given),6.46,17.6,12.7,24,–,21.5
COc1cc2ncnc(Nc3cccc(Cl)c3)c2cc1OC,28.8,45.8,38.3,47.2,54.3,13.7

Compound,TGI [1] [µM],TGI [2] [µM],TGI [3] [µM],TGI [4] [µM],TGI [5] [µM],TGI [6] [µM]
CC(C)(C)C(=O)OCOP(=O)(OCOC(=O)C(C)(C)C)OCC1OC(n2ccc(=O)[nH]c2=O)C(N=[N+]=[N-])C1O (stereo not given),12.8,22,17.6,16.1,13.4,14.9
COc1nc(N=P(c2ccccc2)(c2ccccc2)c2ccccc2)cc(=O)[nH]1,> 100,> 100,> 100,> 100,> 100,> 100
CC(=O)N(C(C)=O)n1c(Cc2ccc(Cl)cc2)n[nH]c1=O,> 100,> 100,> 100,> 100,> 100,> 100
Cc1c(C)c(C)n(C2OC(CO)C(O)C(O)C2O)c(=S)c1C#N (stereo not given),> 100,> 100,> 100,> 100,> 100,–
O=C(Cn1c2c(c3ccccc31)CCCC2)N1CCCC1,–,> 100,–,> 100,> 100,> 100
O=S(=O)(SC1=NCCN1)c1ccc2ccccc2c1,44.1,68.9,> 100,49.6,38.7,83.9
CCCCCCCCCCCCN(CC(O)C(O)C(OC1OC(CO)C(O)C(O)C1O)C(O)CO)C(=O)CCCCCCCCCCC (stereo not given),36.7,45.4,35.8,> 100,32.6,40.4
COC(=O)c1cc2c(cc1CC1Cc3cc4c(cc3C1=O)CCC4)CCC2 (stereo not given),> 100,> 100,> 100,> 100,> 100,> 100
CC(C)(C)/C(=N\Nc1nc2ccccc2[nH]1)c1ccccn1,> 100,> 100,> 100,–,–,> 100
O=C(O)c1ccccc1/C=N/NC1=NCCN1,> 100,–,–,> 100,> 100,> 100
O=C1CN(C(=O)C2CCCN2C(=O)C2CCCN2)C(=O)CN1 (stereo not given),> 100,> 100,> 100,> 100,> 100,> 100
O=C1CSSCC(=O)Nc2ccccc2N1,> 100,> 100,> 100,> 100,–,> 100
Cc1ccc([N+](=O)[O-])cc1S(=O)(=O)Nc1ccc(C2=NN(c3ccc([N+](=O)[O-])cc3[N+](=O)[O-])C(c3cccs3)C2)cc1 (stereo not given),55.6,34.1,> 100,> 100,–,49.8
Nc1nc(I)nc2c1ncn2C1OC(COS(N)(=O)=O)C(O)C1O (stereo not given),0.0297,0.032,< 0.0193,0.0189,0.0311,0.103
O=c1oc2ccccc2cc1-c1csc(Nc2ccc(F)cc2)n1,18.4,10.1,11.3,20.9,17.1,17.4
N#CC1C(=O)N(c2ccccc2)NC12OC(=O)c1ccncc12 (stereo not given),–,> 20,> 20,> 20,> 20,> 20
